Marks after values point to notes of the source that are not given here.
Assays:
[1] = tested on: A1 receptor / A2A receptor; test: Affinity for adenosine A1 receptor relative to A2A receptor; type: binding
Text: (§1) Therefore, DTI-0009 may be capable of terminating episodes of supraventricular arrythymias at doses that have little effect on normal heart rate or blood pressure.

[2] = Example 5: pharmacokinetics and renal function markers of short i.v. infusions in healthy subjects; type: in vivo, human
Procedure: A study was designed to determine the dose dependent pharmacokinetics (PK) of short i.v. infusions of DTI-0009 in healthy subjects. Ten healthy young volunteer (ages 21 to 35 years old) received a 30-minute infusion of 1 μg/kg DTI-0009, or 5 μg/kg DTI-0009 or saline on three different occasions. The subjects were hydrated by a saline infusion ([…]) for one hour prior to and five hours after the start of the drug infusion. Serial plasma and urine samples were taken over 24 hours to measure DTI-0009 concentrations (as well as glucuronide, in urine only), creatinine, sodium and potassium by validated methods. The following renal function markers were assessed over time: urinary flow rate (UF), creatinine clearance (CLCrea), sodium clearance (CLNa) and potassium clearance (CLK). Additionally, noncompartmental PK analysis was performed and instantaneous renal clearance (CLren^inst) was estimated as a function of UF and CLcrea.

[3] = tested on: atrioventricular (AV) node; test: Example 2: electrophysiologic effects on atrioventricular nodal function, 30-minute i.v. infusion; type: in vivo, human
Procedure: An open-label, sequential group, dose-escalation study was conducted in electrophysiology laboratories at 11 sites in the United States between October 2000 and August 2001. The study protocol was approved by the institutional review board at each site, and patients provided assent and written informed consent prior to enrollment. Male and female patients (18 to 80 years of age), scheduled to undergo an electrophysiological (EP) study for a known or suspected cardiac arrhythmia or a catheter ablation procedure to an area other than the atrioventricular (AV) node, were enrolled in the study. Study procedures were performed after the completion of the scheduled EP procedure and patients were to be in sinus rhythm at study baseline. Exclusion criteria included: greater than first degree AV block, previous ablation of the AV node or AV node slow pathway, presence of an AV Wenckebach cycle length (AV WBCL)≧500 msec, treatment with atropine during the scheduled EP procedure, systolic blood pressure <90 or >180 mmHg, significant hemodynamic instability, ventricular response rate (VRR)<50 bpm, consumption of caffeine-containing food or beverage within the previous 12 hours, treatment with dipyridamole or diltiazem within the respective 5 half lives or theophylline, aminophylline, treatment with a therapeutic adenosine antagonist within the previous 24 hours, heart transplant or myocardial infarction within 30 days, known hypersensitivity to adenosine, known human immunodeficiency virus infection, or clinically significant hematologic, neurologic, hepatic, or renal function impairment.
Each patient received 1 of 6 doses of DTI-0009 (0.25, 1.0, 2.5, 4.0, 10.0, or 25.0 μg/kg) diluted in normal saline or normal saline only (control). Study drug was administered as a 30-minute i.v. infusion at a rate of 1 mL/minute. Patients were enrolled in sequential dose groups, beginning with the lowest active dose group and continuing in increasing dose order; the final group received normal saline. The decision to proceed to the next highest dose group was based on the safety response in the previous dose group.
Electrophysiologic (EP), electrocardiogram (ECG), blood pressure measurements, and blood collection for clinical laboratory measurements were performed at baseline (−10 to 0 minutes), during treatment (between 20 and 30 minutes), and at 10 minutes post-treatment.
EP measurements included ventricular response rate (VRR) during fixed atrial pacing at 250 and 400 msec (VRR 250 and VRR 400), AV WBCL, the interval from atrium to His bundle (AH interval) during sinus rhythm and rapid fixed atrial pacing at 600 msec, AV node effective refractory period (AVNERP), and atrial effective refractory period (AERP). Ventricular response rate during sinus rhythm was derived from the sinus cycle length.
ECG measurements included PR interval, QRS complex duration, and QT interval. Efficacy was based on changes in EP and ECG parameters from baseline to the treatment period and to post treatment. Safety was based on the incidence of adverse events, blood pressure measurements, and clinical laboratory values.
Demographic and baseline information were summarized by dose group. Efficacy variables were summarized overall by dose group at baseline, during treatment, and at post-treatment; mean changes from baseline to treatment period and post-treatment were calculated. Treatment effects (the mean difference between change from baseline for DTI-0009 dose and change from baseline for normal saline) and confidence intervals (95% CI) were estimated from an analysis of covariance (ANCOVA) model with treatment as the main factor and baseline score as a covariate. Regression models were constructed to test for dose responses. Efficacy analyses included all patients who received at least 20 minutes of study drug infusion, had analyzable VRR 250 at baseline and during treatment, and were in sinus rhythm at baseline.

[4] = tested on: AV nodal conduction; test: Slowing of AV nodal conduction versus heart rate reduction; type: in vivo; conditions: guinea pig
Text: as §1

CCNC(=O)[C@H]1O[C@@H](n2cnc3c(NC4CCCC4)ncnc32)[C@H](O)[C@@H]1O [DTI-0009, N^6-cyclopentyl-5′-(N-ethyl)carboxamidoadenosine]
affinity for the A1 receptor higher than for the A2A receptor [1]: 340 fold | Vdss [2]: approached body weight | duration of inhibitory effects on CLCrea [2]: 1 to 2 h | duration of inhibitory effects on CLNa [2]: 3 to 4 h | time at which dose-dependent secondary effects (rebounds) in UF and natriuresis were apparent [2]: 5 to 10 h | CLnonren with increasing dose ([2]; 1 μg/kg vs 5 μg/kg): appeared unchanged | CLren reduced with increasing dose ([2]; 1 μg/kg vs 5 μg/kg): 29% | CLtot reduced with increasing dose ([2]; 1 μg/kg vs 5 μg/kg): 25% | eliminated unchanged in urine ([2]; 30-minute i.v. infusion of 1 or 5 μg/kg): About 42% | effect on diuresis, natriuresis and kaliuresis ([2]; initially, dose-dependent inhibition of CLcrea, CLNa and to a lesser extent CLK): transiently reduced diuresis, natriuresis and kaliuresis | AERP Treatment Effect ([3]; 0.25 μg/kg, during treatment): -9.6 ms | AH interval 600 msec Pacing Treatment Effect ([3]; 0.25 μg/kg, during treatment): 4.85 ms | AH interval Sinus Rhythm Treatment Effect ([3]; 0.25 μg/kg, during treatment): -2.8 ms | AVNERP Treatment Effect ([3]; 0.25 μg/kg, during treatment): -7.03 ms | AERP Treatment Effect ([3]; 1.0 μg/kg, during treatment): -18.3 ms | AH interval 600 msec Pacing Treatment Effect ([3]; 1.0 μg/kg, during treatment): 2.6 ms | AH interval Sinus Rhythm Treatment Effect ([3]; 1.0 μg/kg, during treatment): -0.1 ms | AVNERP Treatment Effect ([3]; 1.0 μg/kg, during treatment): -1.0 ms | PR interval treatment effect ([3]; 1.0 μg/kg, during treatment, p=0.008): -42.2 ms | PR interval treatment effect ([3]; 1.0 μg/kg, post-treatment, p=0.023): -34.5 ms | AERP Treatment Effect ([3]; 2.5 μg/kg, during treatment): -7.3 ms | AH interval 600 msec Pacing Treatment Effect ([3]; 2.5 μg/kg, during treatment): 18.0 ms | AH interval Sinus Rhythm Treatment Effect ([3]; 2.5 μg/kg, during treatment): 7.1 ms | AVNERP Treatment Effect ([3]; 2.5 μg/kg, during treatment): 16.0 ms | AERP Treatment Effect ([3]; 4.0 μg/kg, during treatment): 0.6 ms | AH interval 600 msec Pacing Treatment Effect ([3]; 4.0 μg/kg, during treatment): 18.7 ms | AH interval Sinus Rhythm Treatment Effect ([3]; 4.0 μg/kg, during treatment): 7.2 ms | AVNERP Treatment Effect ([3]; 4.0 μg/kg, during treatment): 82.4 ms | VRR 250 treatment effect ([3]; 4.0 μg/kg, during treatment, CI −51.0, −8.4, p=0.008): −29.7 bpm | AERP Treatment Effect ([3]; 10.0 μg/kg, during treatment): −22.0* msec | AH interval 600 msec Pacing Treatment Effect ([3]; 10.0 μg/kg, during treatment): 57.9*** msec | AH interval Sinus Rhythm Treatment Effect ([3]; 10.0 μg/kg, during treatment): 21.1** msec | AVNERP Treatment Effect ([3]; 10.0 μg/kg, during treatment): 231.5*** msec | VRR 250 treatment effect ([3]; 10.0 μg/kg, during treatment, CI −68.3, −26.4, p=0.001): −47.4 bpm | PR interval treatment effect ([3]; 10.0 μg/kg, post-treatment, p=0.007): 42.9 ms | AERP Treatment Effect ([3]; 25.0 μg/kg, during treatment): 4.0 ms | AH interval 600 msec Pacing Treatment Effect ([3]; 25.0 μg/kg, during treatment): 64.8** msec | AH interval Sinus Rhythm Treatment Effect ([3]; 25.0 μg/kg, during treatment): 14.2 ms | AVNERP Treatment Effect ([3]; 25.0 μg/kg, during treatment): 198.3* msec | VRR 250 treatment effect ([3]; 25.0 μg/kg, during treatment, CI −85.7, −18.5, p=0.004): −52.1 bpm | VRR 250 treatment effect at lower doses ([3]; 0.25, 1.0, and 2.5 μg/kg): no statistically significant treatment effect | QRS duration or QT interval ([3]; during the study): no statistically significant changes | AV WBCL treatment effect ([3]; during treatment, 10.0 and 25.0 μg/kg (p=0.001, p=0.035)): statistically significant treatment effects (increases from baseline) | AV WBCL treatment effect ([3]; post-treatment, 4.0, 10.0 and 25.0 μg/kg (p=0.013, p=0.001, p=0.001)): statistically significant treatment effects (increases from baseline) | potency at slowing AV nodal conduction versus reducing heart rate ([4]; in vivo): three times more potent at slowing AV nodal conduction than at reducing heart rate | rate dependence of slowing AV nodal conduction ([4]; rapid atrial pacing vs normal sinus rhythm): more potent at slowing AV nodal conduction during periods of rapid atrial pacing than during normal sinus rhythm
